In patent US20250134103A1, “PESTICIDAL MIXTURES COMPRISING AN IS[…]” (priority 2021, published 2025):
Like-named read-outs stand apart in the source and are kept apart here.

Columns and labels:
Assay type in all cases: in vivo
[1] = test system: yellow fever mosquito (Aedes aegypti); experiment: whole plant or invertebrate
Method: For evaluating control of yellow fever mosquito (Aedes aegypti) the test unit consisted of 96-well-microtiter plates containing 200 μl of tap water per well and 5-15 freshly hatched A. aegypti larvae.
The compounds or mixtures were formulated using a solution containing 75% water and 25% DMSO. Different concentrations of formulated compounds or mixtures were sprayed onto the insect diet at 2.5 μl, using a custom-built micro atomizer, at two replications.
(§1) For experimental mixtures in these tests identical volumes of both mixing partners at the desired concentrations respectively, were mixed together.
After application, microtiter plates were incubated at 28±1° C., 80±5% RH for 2 days. Larval mortality was then visually assessed. For the mixture tested the results are listed in Table 2.1 to 2.11, wherein the * marks synergistic control effect according to Colby's equation.

[2] = test system: tobacco budworm (Heliothis virescens); experiment: Test 1: control of tobacco budworm, 96-well microtiter plates with insect diet and eggs
Method: For evaluating control of tobacco budworm (Heliothis virescens) the test unit consisted of 96-well-microtiter plates containing an insect diet and 15-25 H. virescens eggs.
The compounds or mixtures were formulated using a solution containing 75% water and 25% DMSO. Different concentrations of formulated compounds or mixtures were sprayed onto the insect diet at 10 μl, using a custom-built micro atomizer, at two replications.
For experimental mixtures in these tests, identical volumes of both mixing partners at the desired concentrations respectively, were mixed together.
After application, microtiter plates were incubated at 28±1° C., 80±5% RH for 5 days. Egg and larval mortality were then visually assessed. For the mixture tested the results are listed in Tables 1.1 to 1.7, wherein the * marks synergistic control effect according to Colby's equation.

[3] = test system: green peach aphid (Myzus persicae); experiment: Test 3: control of green peach aphid through systemic means, artificial diet under membrane; settings: aphid mortality and fecundity after 3 days
From the text: For evaluating control of green peach aphid (Myzus persicae) through systemic means the test unit consisted of 96-well-microtiter plates containing liquid artificial diet under an artificial membrane.
Different concentrations of formulated compounds or mixtures were pipetted into the aphid diet, using a custom built pipetter, at two replications.
as §1
After application, 5-8 adult aphids were placed on the artificial membrane inside the microtiter plate wells. The aphids were then allowed to suck on the treated aphid diet and incubated at 23±1° C. 50±5% RH for 3 days. Aphid mortality and fecundity was then visually assessed.

[4] = test system: boll weevil (Anthonomus grandis); experiment: Test 4: control of boll weevil, 24-well microtiter plates with insect diet and eggs; settings: egg and larval mortality after 5 days
Method: For evaluating control of boll weevil (Anthonomus grandis) the test unit consisted of 24-well-microtiter plates containing an insect diet and 20-30 A. grandis eggs.
The compounds or mixtures were formulated using a solution containing 75% water and 25% DMSO. Different concentrations of formulated compounds or mixtures were sprayed onto the insect diet at 20 μl, using a custom-built micro atomizer, at two replications.
as §1
After application, microtiter plates were incubated at 23±1° C., 50±5% RH for 5 days. Egg and larval mortality was then visually assessed. For the mixture tested the results are listed in tables 4.1 to 4.4, wherein the * marks synergistic control effect according to Colby's equation.

[5] = test system: tobacco budworm (Plutella xylostella); experiment: Test 5: control of Plutella xylostella, 96-well microtiter plates with insect diet and eggs; settings: egg and larval mortality after 5 days
Method: For evaluating control of […] (Plutella xylostella) the test unit consisted of 96-well-microtiter plates containing an insect diet and 15-25 P. xylostella eggs.
The compounds or mixtures were formulated using a solution containing 75% water and 25% DMSO. Different concentrations of formulated compounds or mixtures were sprayed onto the insect diet at 5 μl, using a custom-built micro atomizer, at two replications.
as §1
After application, microtiter plates were incubated at 28±1° C., 80±5% RH for 5 days. Egg and larval mortality was then visually assessed.

[6] = Aedes aegypti, 48 h, 0.4 ppm, larval mortality after 2 days, read-out: Average control observed (%)
[7] = Heliothis virescens, 120 h, 0.4 ppm, egg and larval mortality after 5 days, read-out: Average control observed (%)
[8] = Aedes aegypti, 48 h, 4 ppm, larval mortality after 2 days, read-out: Average control observed (%)
[9] = 2 ppm, larval mortality after 2 days
[10] = 0.4 ppm, larval mortality after 2 days

Cc1c(COC(=O)[C@@H]2[C@H](/C=C(\Cl)C(F)(F)F)C2(C)C)cccc1-c1ccccc1 (racemic) [Bifenthrin (2b), bifenthrin]
pest or weed control at 0.4 ppm [1, 6]: 25% | pest or weed control at 0.4 ppm [2, 7]: 0%

C/C(=N\C#N)N(C)Cc1ccc(Cl)nc1 [Acetamiprid (3d), acetamiprid]
pest or weed control at 4 ppm [1, 8]: 0%

CN(C(=O)c1ccccc1)c1cccc(C(=O)Nc2c(Br)cc(C(F)(C(F)(F)F)C(F)(F)F)cc2C(F)(F)F)c1F [Broflanilide (16), broflanilide]
Average control observed (%) [1, 9]: 12.5%

CNC(=O)c1cc(Cl)cc(C)c1NC(=O)c1cc(Br)nn1-c1ncccc1Cl [Chlorantraniliprole (14b), Chlorantraniliprole]
Average control observed (%) ([3]; 0.4 ppm): 0%

CCOCn1c(-c2ccc(Cl)cc2)c(C#N)c(Br)c1C(F)(F)F [Chlorfenapyr (8), chlorfenapyr]
pest or weed control at 0.8 ppm ([1]; Aedes aegypti, 48 h, 0.8 ppm, larval mortality after 2 days, read-out: Average control observed (%)): 0%

CN/C(=N\[N+](=O)[O-])NCc1cnc(Cl)s1 [Clothianidin (3c), clothianidin]
pest or weed control at 1 ppm ([1]; Aedes aegypti, 48 h, 1 ppm, larval mortality after 2 days, read-out: Average control observed (%)): 0%

O=C(NCc1ncccn1)c1ccc(C2=NO[C@@](c3cc(Cl)c(F)c(Cl)c3)(C(F)(F)F)C2)c2ccncc12 [Compound I-1, 5-[(5S)-5-(3,5-dichloro-4-fluoro-phenyl)-5-(trifluoromethyl)-4H-isoxazol-3-yl]-N-(pyrimidin-2-ylmethyl)isoquinoline-8-carboxamide]
Average control observed (%) ([4]; 0.048 ppm): 0% | Average control observed (%) ([4]; 0.24 ppm): 0% | pest or weed control at 0.009 ppm ([1]; Aedes aegypti, 48 h, 0.009 ppm, larval mortality after 2 days, read-out: Average control observed (%)): 0% | pest or weed control at 0.048 ppm ([1]; Aedes aegypti, 48 h, 0.048 ppm, larval mortality after 2 days, read-out: Average control observed (%)): 0% | pest or weed control at 0.24 ppm ([1]; Aedes aegypti, 48 h, 0.24 ppm, larval mortality after 2 days, read-out: Average control observed (%)): 0% | pest or weed control at 0.009 ppm ([2]; Heliothis virescens, 120 h, 0.009 ppm, egg and larval mortality after 5 days, read-out: Average control observed (%)): 0% | pest or weed control at 0.048 ppm ([2]; Heliothis virescens, 120 h, 0.048 ppm, egg and larval mortality after 5 days, read-out: Average control observed (%)): 0% | pest or weed control at 0.24 ppm ([2]; Heliothis virescens, 120 h, 0.24 ppm, egg and larval mortality after 5 days, read-out: Average control observed (%)): 0% | Average control observed (%) ([5]; 0.05 ppm): 0% | Average control observed (%) ([3]; 0.009 ppm): 0% | Average control observed (%) ([3]; 0.24 ppm): 0%

CC1(C)C(C=C(Cl)Cl)C1C(=O)OC(C#N)c1ccc(F)c(Oc2ccccc2)c1 (centres unmarked) [Cyfluthrin (2c), cyfluthrin]
Average control observed (%) [1, 10]: 0%

CCN(C(=O)c1cnn(C(C)C(C)C)c1C)c1ccnnc1 (centres unmarked) [Dimpropyridaz (17b), dimpropyridaz]
Average control observed (%) ([3]; 2 ppm): 0%

CN/C(=N/CC1CCOC1)N[N+](=O)[O-] (centres unmarked) [Dinotefuran (3f), dinotefuran]
pest or weed control at 4 ppm ([1]; Aedes aegypti, 48 h, read-out: Average control observed (%)): 0% | pest or weed control at 20 ppm ([2]; Heliothis virescens, 120 h, 20 ppm, egg and larval mortality after 5 days, read-out: Average control observed (%)): 0%

N#Cc1nn(-c2c(Cl)cc(C(F)(F)F)cc2Cl)c(N)c1[S+]([O-])C(F)(F)F (centres unmarked) [Fipronil (1b), fipronil]
Average control observed (%) ([4]; 0.4 ppm): 12.5% | pest or weed control at 0.4 ppm [1, 6]: 0% | pest or weed control at 0.08 ppm ([2]; Heliothis virescens, 120 h, read-out: Average control observed (%)): 0%

Cc1cc(C(F)(C(F)(F)F)C(F)(F)F)ccc1NC(=O)c1cccc(I)c1C(=O)NC(C)(C)CS(C)(=O)=O [Flubendiamide (14a), Flubendiamide]
pest or weed control at 0.4 ppm [2, 7]: 12.5%

O=C1C=C(N(Cc2ccc(Cl)nc2)CC(F)F)CO1 [Flupyradifurone (3i), flupyradifurone]
Average control observed (%) ([3]; 2 ppm): 12.5%

O=[N+]([O-])NC1=NCCN1Cc1ccc(Cl)nc1 [Imidacloprid (3b), imidacloprid]
Average control observed (%) ([3]; 0.8 ppm): 0%

COC(=O)N(C(=O)N1CO[C@@]2(C(=O)OC)Cc3cc(Cl)ccc3C2=N1)c1ccc(OC(F)(F)F)cc1 [Indoxacarb (12), indoxacarb]
Average control observed (%) ([4]; 0.08 ppm): 25% | Average control observed (%) ([1]; 0.08 ppm, larval mortality after 2 days): 0% | Average control observed (%) [1, 10]: 0% | Average control observed (%) [1, 9]: 0% | Average control observed (%) ([2]; 0.4 ppm, egg and larval mortality after 5 days): 0%

COc1cccc(C(=O)NN(C(=O)c2cc(C)cc(C)c2)C(C)(C)C)c1C [Methoxyfenozide (11), methoxyfenozide]
pest or weed control at 0.4 ppm [2, 7]: 37.5%

CCOC(=O)OC1=C(c2cc(C)ccc2C)C(=O)N[C@]12CC[C@@H](OC)CC2 [Spirotetramat (13a), spirotetramat]
pest or weed control at 80 ppm ([1]; Aedes aegypti, 48 h, 80 ppm, larval mortality after 2 days, read-out: Average control observed (%)): 0%

O=C(NC(=O)c1c(F)cccc1F)Nc1cc(Cl)c(F)c(Cl)c1F [Teflubenzuron (9), teflubenzuron]
Average control observed (%) ([4]; 0.1 ppm): 12.5%

N#C/N=C1\SCCN1Cc1ccc(Cl)nc1 [Thiacloprid (3e), thiacloprid]
pest or weed control at 4 ppm [1, 8]: 50%

CN1COCN(Cc2cnc(Cl)s2)/C1=N\[N+](=O)[O-] [Thiamethoxam (3a), thiamethoxam]
Average control observed (%) ([4]; 0.03 ppm): 0% | pest or weed control at 0.03 ppm ([2]; Heliothis virescens, 120 h, 0.03 ppm, egg and larval mortality after 5 days, read-out: Average control observed (%)): 0% | Average control observed (%) ([5]; 0.03 ppm): 0%

CC1(C)C(C=C(Cl)Cl)C1C(=O)OC(C#N)c1cccc(Oc2ccccc2)c1 (stereo not drawn) [alpha-cypermethrin (2a), alpha-cypermethrin]
pest or weed control at 0.4 ppm [2, 7]: 25%

CC1(C)[C@H](/C=C(\Cl)C(F)(F)F)[C@@H]1C(=O)O[C@@H](C#N)c1cccc(Oc2ccccc2)c1 [lamda-cyhalothrin (2e), lamda-cyhalothrin]
Average control observed (%) ([1]; 0.16 ppm, larval mortality after 2 days): 0% | Average control observed (%) ([2]; 0.16 ppm, egg and larval mortality after 5 days): 50%

spinetoram [Spinetoram (4b)]
Average control observed (%) ([2]; 0.2 ppm, egg and larval mortality after 5 days): 0%
